Reference: publication PMC3082897 (2010)
pEC50, pIC50: −log10 of the molar value. Where two headings read alike, the source gives them in different places.

Experiments:
[1] = target: T1, UMPKmt (uridine monophosphate kinase, Rv2883c) (Mycobacterium tuberculosis, UniProt P9WHK5); assay: coupled spectrophotometric kinase assay; format: biochemical
Target sequence in this assay (P9WHK5 whole entry, looked up): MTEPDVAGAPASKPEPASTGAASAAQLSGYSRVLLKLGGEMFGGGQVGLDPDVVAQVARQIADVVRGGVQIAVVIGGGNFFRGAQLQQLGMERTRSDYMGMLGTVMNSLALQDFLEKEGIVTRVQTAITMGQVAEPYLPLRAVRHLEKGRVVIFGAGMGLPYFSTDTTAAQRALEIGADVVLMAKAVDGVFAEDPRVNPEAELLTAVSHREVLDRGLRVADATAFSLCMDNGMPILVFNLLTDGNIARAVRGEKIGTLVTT

[2] = target: T1, UMPKmt (uridine monophosphate kinase, Rv2883c); assay: X-ray crystal structure; format: biochemical
Target sequence in this assay (P9WHK5 whole entry): as the sequence (P9WHK5 whole entry, looked up) above

[3] = target: T1, UMPKmt (uridine monophosphate kinase, Rv2883c); assay: coupled spectrophotometric kinase assay; format: biochemical; remark: listed apart in the source
Target sequence in this assay (P9WHK5 whole entry, looked up): as above

[4] = target: T1, UMPKmt (uridine monophosphate kinase, Rv2883c); assay: coupled spectrophotometric kinase assay; format: biochemical; remark: listed apart in the source
Target sequence in this assay (P9WHK5 whole entry, looked up): as above

[5] = test system: O=c1ccn([C@@H]2O[C@H](COP(=O)(O)O)[C@@H](O)[C@H]2O)c(=O)[nH]1; assay: purified protein

Molecule	pIC50 [1]	other results
O=c1[nH]c(=O)n([C@@H]2O[C@H](COP(=O)(O)OP(=O)(O)OP(=O)(O)O)[C@@H](O)[C@H]2O)cc1Br [5Br-UTP]	4.00	
O=c1[nH]c(=O)n([C@@H]2O[C@H](COP(=O)(O)OP(=O)(O)OP(=O)(O)O)[C@@H](O)[C@H]2O)cc1I [5I-UTP]	4.70	
Nc1nc2c(ncn2[C@@H]2O[C@H](COP(=O)(O)OP(=O)(O)OP(=O)(O)O)[C@@H](O)[C@H]2O)c(=O)[nH]1 [GTP]		pEC50 [2]: 4.00
O=c1ccn([C@@H]2O[C@H](COP(=O)(O)OP(=O)(O)OP(=O)(O)O)[C@@H](O)[C@H]2O)c(=O)[nH]1 [UTP]		pIC50 [3]: 4.00
Nc1nc2c(ncn2[C@H]2C[C@H](O)[C@@H](COP(=O)(O)OP(=O)(O)OP(=O)(O)O)O2)c(=O)[nH]1 [dGTP]		coupled spectrophotometric kinase assay (activation, similar to GTP) [4]: dGTP, Mant-GTP and 6-methylthio GTP exhibited similar properties to GTP in terms of both affinity and extent of activation
Cc1cn([C@H]2C[C@H](O)[C@@H](COP(=O)(O)OP(=O)(O)OP(=O)(O)O)O2)c(=O)[nH]c1=O [dTTP]	3.40	
O=c1ccn([C@H]2C[C@H](O)[C@@H](COP(=O)(O)OP(=O)(O)OP(=O)(O)O)O2)c(=O)[nH]1 [dUTP]	3.62	
UMPKmt (uridine monophosphate kinase, Rv2883c) (Mycobacterium tuberculosis H37Rv)		Km [5]: 19.6 ± 1.8 µM
